Patent US10058540B2, “2-amino-5,5-difluoro-6-(fluoromethyl)-6-phenyl-3,4,5,6-tetrahydropyridines as BACE1 inhibitors” (H. Lundbeck A/S, priority 2014, dated 2018)
Where two headings read alike, the source gives them in different places.

Legend:
[1] = tested on: P-gp (MDR1); experiment: MDCK-MDR1 assay (permeability / Pgp efflux); type: in vitro ADME; details: dog, Papp BA/Papp AB, Pgp substrate when ≥2
Procedure: The permeability of the test compounds was assessed in MDCK-MDR1 cells that were cultured to confluency (4-6 days) in a 96 transwell plate. Test compounds were diluted with the transport buffer (HBSS+1% BSA) to a concentration of 0.5 μM and applied to the apical or basolateral side of the cell monolayer. Permeation of the test compounds from A to B direction or B to A direction was determined in triplicate over a 60-minute incubation time at 37° C. and 5% CO2 with a relative humidity of 95%. Test compounds were quantified by LC-MS/MS analysis based on the peaks area ratios of analyte/IS in both the receiver and donor wells of the transwell plate.
The apparent permeability coefficient Papp (cm/s) was calculated using the equation: Papp=(dCr/dt)×Vr/(A×C0) Where dCr/dt is the cumulative concentration of compound in the receiver chamber as a function of time (μM/s); Vr is the solution volume in the receiver chamber (0.05 mL on the apical side; 0.25 mL on the basolateral side); A is the surface area for the transport, i.e. 0.0804 cm^2 for the area of the monolayer; C0 is the initial concentration in the donor chamber (μM).
Compounds are classified Pgp substrates when efflux ratio (Papp BA/Papp AB) is ≥2.

[2] = Bioanalysis of brain and plasma samples (exposure, UPLC-MS/MS); type: in vivo, rat; details: male, Sprague Dawley, po, 3 hours post dose; for Kp at 3 h: brain/plasma, rat, read-out: Brain/Plasma ratio; for concentration at 3 h: read-out: Exp
Procedure: Young adult Male Sprague Dawley rats of approximately 250 g weight were purchased from Charles River and received 0-30 mg/kg of vehicle (10% HP betaCD+1M MeSO4, pH 2.5) or test compounds (dissolved in vehicle) only by oral gavage (p.o). The compounds are dosed at a volume of […]. Cohorts of 5-10 animals were established for each treatment condition.
At T=180 minutes after initial dosing the animals were stunned and decapitated with a guillotine. Trunk-blood was sampled in EDTA coated tubes after decapitation of the animal. The blood was centrifuged at 2200 G at 4° C. for 15 minutes and the plasma was collected and frozen at −80° C. The blood was aliquoted for Aβ ELISA and DMPK analysis. Immediately following sacrifice, the brain was extracted and split into 2 halves. The right hemibrains were snap frozen on dry ice and stored at −80° C. The left half was dissected; with the front forebrain taken for Aβ ELISA and the remainder used for DMPK analysis. These samples were also snap frozen on dry ice and stored at −80° C. until use for analysis.
TC was determined in plasma and brain homogenate using UltraPerformance LC® (UPLC®) chromatography followed by tandem-MS (MS/MS) detection.
Brain homogenate was prepared by homogenizing the brain 1:4 (v/v) with water:2-propanol:DMSO (50:30:20 v/v/v) followed by centrifugation and collection of the supernatant. Calibration standards and QC samples were prepared using a Hamilton robot. 150 μL of ISTD in acetonitrile (1 ng/mL ISTD) was added to 25 μL of calibration standards, QC samples and test samples (plasma and brain homogenate) using a Biomek robot. After centrifugation (6200 g, 4° C., 20 min) 100 μL supernatant from each sample was transferred to a new plate and mixed with 100 μL water with 0.1% formic acid using a Biomek robot (method file InVivo transfer). After a quick centrifugation (6200 g, 4° C., 5 min) the samples were placed in the auto-sampler.
MS/MS detection was done with an Applied Biosystems Sciex API 4000 instrument in positive-ion electrospray ionisation mode. TC and ISTD were detected at a parent>daughter mass to charge ratio (m/z). Nitrogen was used for the nebulizer and collision gases. The peak area correlated linearly with the plasma and brain concentration of the analytes in the range of 1.00-1000 ng/mL plasma and 5.00-5000 ng/g brain (corrected for dilution). If the plasma/brain sample drug concentration was above 1000 ng/mL or 5000 ng/g, the sample was diluted appropriately in blank plasma/blank brain homogenate before analysis.
• Waters Acquity UPLC HSS C18 SB (pH 2-8) 1.8 μm, 2.1×30 mm. • Mobile phase A: 0.1% aq. formic acid or 0.1% aq. ammonium hydroxide • Mobile phase B: Acetonitrile with 0.1% aq. formic acid or 0.1% aq. ammonium hydroxide. • Weak wash: Methanol • Strong wash: Acetonitrile/Isopropanol/formic acid (50/50/2 v/v/v) • Flow: 0.6 mL/min • Run time: 3 min. • To waste: 0-0.5 min • Temperature: 40° C. Gradient: […]
Compounds 11 and 15 were administered at doses of 10 mg/kg p.o. and brain and plasma samples were collected at 3 hours post dose and the following exposures were measured as described above.

Question: For `COc1cnc(C(=O)Nc2cc(F)c(F)c([C@@]3(CF)N=C(N)CCC3(F)F)c2)cn1` [Compound 11, (S)-N-(3-(6-amino-3,3-difluoro-2-(fluoromethyl)-2,3,4,5-tetrahydropyridin-2-yl)-4,5-difluorophenyl)-5-methoxypyrazine-2-carboxamide], which efflux ratio at 60 min, 0.5 μM [1] is on record?
Answer: 0.77

Question: What about the Kp at 3 h ([2]; 10 mg/kg p.o.) of the same molecule?
Answer: 1.8

Question: And the Kp at 3 h ([2]; 30 mg/kg p.o.)?
Answer: 1.3

Question: And the concentration at 3 h ([2]; rat brain, 10 mg/kg p.o.)?
Answer: 1760 ng/g

Question: And the concentration at 3 h ([2]; rat brain, 30 mg/kg p.o.)?
Answer: 4210 ng/g

Question: What about the concentration at 3 h ([2]; rat plasma, 10 mg/kg p.o.) of the same molecule?
Answer: 1120 ng/g

Question: What about the concentration at 3 h ([2]; rat plasma, 30 mg/kg p.o.) of the same molecule?
Answer: 3290 ng/g
